The results in this text go back to US20240132484A1, “BROAD SPECTRUM ANTIVIRAL COMPOUNDS TARGETING THE SKI COMPLEX” (priority 2020, published 2024).

The subject of series [1] is Influenza virus. As to the kind of experiment: organism not typed. It is filed as cell-based, influenza A virus. Conditions: for Flu titer (pfu/ml): A549 cells, plaque assay; for Avg: 1-24-20; for Avg PFU/ml: average of first and second experiment.
In series [2] the test system is cells (nuclei count). To be noted: for Relative cell count to DMSO controls, Average 1 μM / Relative cell count to DMSO controls, Average 5 μM / Relative cell count to DMSO controls, Average 10 μM / Relative cell count to DMSO controls, Average 25 μM / Relative cell count to DMSO controls, Average 50 μM: toxicity data, 100=DMSO control; for Toxicity Data, Average, Mean: average of Exp 1-3 (SMW475, SMW477, SMW478); for Relative cell count to DMSO controls, Average (for correlation analysis): average value over the 5 tested concentrations (1 to 50 uM).

Series [3] deals with SARS2. The series is classed as cell-based, SARS-CoV-2. Conditions: for Percentage Infection Relative to Appropriate DMSO Control with Avg Background Subtraction: Greiner Celigo plates; for Percentage Inhibition Average 1 μM / Screening data (Relative infection to DMSO controls) Average 1 μM: SARS2, 1 μM; for Screening data (Relative infection to DMSO controls) Average 1 μM / Screening data (Relative infection to DMSO controls) Average 5 μM / Screening data (Relative infection to DMSO controls) Average 10 μM / Screening data (Relative infection to DMSO controls) Average 25 μM / Screening data (Relative infection to DMSO controls) Average 50 μM / Average (relative infection to DMSO over the 5 tested concentrations): 100=DMSO control; for Percentage Inhibition Average 5 μM / Screening data (Relative infection to DMSO controls) Average 5 μM: SARS2, 5 μM; for Percentage Inhibition Average 10 μM / Screening data (Relative infection to DMSO controls) Average 10 μM: SARS2, 10 μM; for Percentage Inhibition Average 25 μM / Screening data (Relative infection to DMSO controls) Average 25 μM: SARS2, 25 μM; for Percentage Inhibition Average 50 μM / Screening data (Relative infection to DMSO controls) Average 50 μM: SARS2, 50 μM; for Average (relative infection to DMSO over the 5 tested concentrations): SARS2, average over 1 to 50 uM; for Infection Data, Average, Mean: average of Exp 1-3 (SMW475, SMW477, SMW478).

Several values for one entry are separate records, joined by “and”; a condition that tells them apart may be missing. Equal entries are not always repeated. Where two headings read alike, the source gives them in different places.

With `OC(COc1ccccc1CNCc1cn2c(n1)SCC2)CN1CCSCC1` (stereo not shown) [Compound 32841411, 1-(2-{[(2,3-dihydroimidazo[2,1-b][1,3]thiazol-6-ylmethyl)amino]methyl}phenoxy)-3-(4-thiomorpholinyl)-2-propanol], the “Flu titer (pfu/ml)” value in series [1] (1 μM compound) is listed as 170000 pfu/ml; in series [1] (10 μM compound) it was 80000 pfu/ml; in series [1] (50 μM compound), 31000 pfu/ml.

For the compound `COc1ccc(CNCCc2ccccc2F)c(OCC(O)CN2CCN(C)CC2)c1` (stereo not shown) [Compound 18, 1-[2-({[2-(2-fluorophenyl)ethyl]amino}methyl)-5-methoxyphenoxy]-3-(4-methyl-1-piperazinyl)-2-propanol], in series [1] (10 μM screen), the first experiment stood at 2000 PFU/ml, the second experiment was found to be 1100 PFU/ml, the Avg stood at 1150 PFU/ml and the “Avg PFU/ml” value was determined as 1550 PFU/ml. In series [1] (50 μM screen), the “first experiment PFU/ml” value was determined as 1400 PFU/ml, the “second experiment PFU/ml” value amounted to 300 PFU/ml, the Avg came out at 400 PFU/ml and the “Avg PFU/ml” value came to 850 PFU/ml.

For `COc1ccc(NC(=O)c2ccccc2OCC(=O)NC2CCCCC2)c([N+](=O)[O-])c1` [Compound 7900806, 2-[2-(cyclohexylamino)-2-oxoethoxy]-N-(4-methoxy-2-nitrophenyl)benzamide], the entries for the “Flu titer (pfu/ml)” value in series [1] (1 μM compound), in series [1] (10 μM compound) and in series [1] (50 μM compound) were 77000 pfu/ml, 60000 pfu/ml and 54000 pfu/ml, respectively.

`CCN1CCN(CC(O)COc2cccc(CN(C)Cc3cc(C)no3)c2)CC1` (stereo not shown) [Compound 77921510, 1-(4-ethyl-1-piperazinyl)-3-[3-({methyl[(3-methyl-5-isoxazolyl)methyl]amino}methyl)phenoxy]-2-propanol]: the “Flu titer (pfu/ml)” value was 72000 pfu/ml in series [1] (1 μM compound), 90000 pfu/ml in series [1] (10 μM compound) and 26000 pfu/ml in series [1] (50 μM compound).

With `COC(=O)C1CCN(CC(O)COc2cccc(CN(C)Cc3cc(C)no3)c2)CC1` (stereo not shown) [Compound 62396835, methyl 1-{2-hydroxy-3-[3-({methyl[(3-methyl-5-isoxazolyl)methyl]amino}methyl)phenoxy]propyl}-4-piperidinecarboxylate], the “Flu titer (pfu/ml)” value in series [1] (1 μM compound) was 66000 pfu/ml; in series [1] (10 μM compound) it was 71000 pfu/ml; in series [1] (50 μM compound) it was 30000 pfu/ml.

`CCN(CC)CCNCc1ccccc1OCC(O)CN1CCSCC1` (stereo not shown) [Compound 86006211, 1-[2-({[2-(diethylamino)ethyl]amino}methyl)phenoxy]-3-(4-thiomorpholinyl)-2-propanol]: the “Flu titer (pfu/ml)” value in series [1] (1 μM compound) is 70000 pfu/ml; in series [1] (10 μM compound) it was 60000 pfu/ml; in series [1] (50 μM compound), 12000 pfu/ml.

On to `CCN(CC)CCN(Cc1cccs1)C(=O)c1cccs1` [SILCS34], for which the “Relative cell count to DMSO controls, Average 1 μM” value in series [2] worked out at 102.47. Also, the “Relative cell count to DMSO controls, Average 5 μM” value in series [2] is 99.62. In addition, in series [2], the “Relative cell count to DMSO controls, Average 10 μM” value was determined as 91. Besides, the “Relative cell count to DMSO controls, Average 25 μM” value in series [2] is given as 89.42. Further, in series [2], the “Relative cell count to DMSO controls, Average 50 μM” value was found to be 67.85. Besides, the “Toxicity Data, Average, Mean” value in series [2] (n 9, 1 uM) was 102.47%; in series [2] (n 9, 5 uM), 99.62%; in series [2] (n 9, 10 uM), 91.00%; in series [2] (n 9, 25 uM) it was 89.42%; in series [2] (n 9, 50 uM), 67.85%. Besides, in series [2], the “Relative cell count to DMSO controls, Average (for correlation analysis)” value is given as 90.07. Moreover, the “Percentage Infection Relative to Appropriate DMSO Control with Avg Background Subtraction” value in series [3] (Exp 1 (SMW475), 1 uM) is 84.46% and 79.06% and 78.77%; in series [3] (Exp 1 (SMW475), 5 uM), 83.89% and 91.52% and 85.89%; in series [3] (Exp 1 (SMW475), 10 uM), 120.42% and 77.92% and 112.44%; in series [3] (Exp 1 (SMW475), 25 uM), 73.54% and 67.42% and 88.43%; in series [3] (Exp 1 (SMW475), 50 uM), 98.27% and 86.62% and 67.73%; in series [3] (Exp 2 (SMW477), 1 uM), 117.81% and 129.29% and 121.32%. Besides, the “Percentage Infection Relative to Appropriate DMSO Control with Avg Background Subtraction” value was 137.43% and 146.89% and 126.80% in series [3] (Exp 2 (SMW477), 5 uM); 142.94% and 144.38% and 155.80% in series [3] (Exp 2 (SMW477), 10 uM); 109.38% and 111.61% and 103.44% in series [3] (Exp 2 (SMW477), 25 uM); 62.30% and 66.46% and 58.63% in series [3] (Exp 2 (SMW477), 50 uM); 120.13% and 101.31% and 117.84% in series [3] (Exp 3 (SMW478), 1 uM); 108.72% and 96.17% and 137.98% in series [3] (Exp 3 (SMW478), 5 uM). Besides, the “Percentage Infection Relative to Appropriate DMSO Control with Avg Background Subtraction” value in series [3] (Exp 3 (SMW478), 10 uM) is 127.49% and 93.45% and 116.79%; in series [3] (Exp 3 (SMW478), 25 uM) it was 164.75% and 165.91% and 139.33%; in series [3] (Exp 3 (SMW478), 50 uM) it was 145.01% and 171.02% and 138.34%. The “Percentage Inhibition Average 1 μM” value in series [3] was −5.55%. Further, in series [3], the “Screening data (Relative infection to DMSO controls) Average 1 μM” value is 105.55. In series [3], the “Percentage Inhibition Average 5 μM” value is −12.81%. Besides, in series [3], the “Screening data (Relative infection to DMSO controls) Average 5 μM” value was 112.81. The “Percentage Inhibition Average 10 μM” value in series [3] is listed as −21.29%. Moreover, the “Screening data (Relative infection to DMSO controls) Average 10 μM” value in series [3] was found to be 121.29. The “Percentage Inhibition Average 25 μM” value in series [3] was −13.76%. The “Screening data (Relative infection to DMSO controls) Average 25 μM” value in series [3] is on record as 113.76. In addition, the “Percentage Inhibition Average 50 μM” value in series [3] is reported as 0.62%. The “Screening data (Relative infection to DMSO controls) Average 50 μM” value in series [3] came out at 99.38. Further, the “Average (relative infection to DMSO over the 5 tested concentrations)” value in series [3] is 110.56. The “Infection Data, Average, Mean” value came out at 105.55% in series [3] (n 9, 1 uM); 112.81% in series [3] (n 9, 5 uM); 121.29% in series [3] (n 9, 10 uM); 113.76% in series [3] (n 9, 25 uM); 99.38% in series [3] (n 9, 50 uM).

`COCC1=C(C(=O)NCC2CCC2)C(c2cccs2)NC(=O)N1` (stereo not shown) [SILCS56]: in series [2], the “Relative cell count to DMSO controls, Average 1 μM” value stood at 120.34; the “Relative cell count to DMSO controls, Average 5 μM” value was found to be 119.22; the “Relative cell count to DMSO controls, Average 10 μM” value is given as 119.65; the “Relative cell count to DMSO controls, Average 25 μM” value is given as 104.41. In addition, in series [2], the “Relative cell count to DMSO controls, Average 50 μM” value was 89.59 and the “Relative cell count to DMSO controls, Average (for correlation analysis)” value was determined as 110.64. Further, in series [3], the “Percentage Inhibition Average 1 μM” value stood at 31.59%, the “Screening data (Relative infection to DMSO controls) Average 1 μM” value amounted to 68.41, the “Percentage Inhibition Average 5 μM” value is given as 44.15% and the “Screening data (Relative infection to DMSO controls) Average 5 μM” value is 55.85. For the same compound, in series [3], the “Percentage Inhibition Average 10 μM” value is reported as 29.24%, the “Screening data (Relative infection to DMSO controls) Average 10 μM” value came out at 70.76, the “Percentage Inhibition Average 25 μM” value worked out at 2.27% and the “Screening data (Relative infection to DMSO controls) Average 25 μM” value was 97.73. In addition, in series [3], the “Percentage Inhibition Average 50 μM” value is reported as −21.04%, the “Screening data (Relative infection to DMSO controls) Average 50 μM” value is 121.04 and the “Average (relative infection to DMSO over the 5 tested concentrations)” value worked out at 82.76.
